Drawing on patent US8507411B2, “Neoglycorandomization and digitoxin analogs” (priority 2004, dated 2013), this text covers IC50 for five molecules.

One assay relates to Du145. As to the kind of experiment: High-throughput calcein AM cytotoxicity assay, Du145. The assay is classed as cell-based, human. The note with it: Du145 cells. The text has this: (§1) Standard errors are depicted with error bars.
The next assay has as its system MCF7. The assay can be described thus: High-throughput calcein AM cytotoxicity assay, MCF7. The settings on record: MCF7 cells. The assay is classed as cell-based, human.
From the text: as §1

For another assay, the system named is HCT-116. The assay can be described thus: High-throughput calcein AM cytotoxicity assay, HCT-116. In kind it is cell-based, human. The note with it: HCT-116 cells.
From the text: as §1

The subject of the next assay is Hep3B. As to the kind of experiment: High-throughput calcein AM cytotoxicity assay, Hep3B. The note with it: Hep 3B cells. The assay is classed as cell-based, human.
From the text: as §1

Another assay deals with NCI-H460. The assay can be described thus: High-throughput calcein AM cytotoxicity assay, NCI-H460. The assay is classed as cell-based, human. The settings on record: NCI-H460 cells.
From the text: as §1

In the next assay the test system is A549. As to the kind of experiment: High-throughput calcein AM cytotoxicity assay, A549. The assay is classed as cell-based, human. The settings on record: A549 cells.
From the text: as §1

The test system of another assay is NCI/ADR-RES. As to the kind of experiment: cells. In kind it is cell-based, human. The note with it: NCI/ADR-RES cells. From the text:
(§2) In the assay, live cells were distinguished by the presence of a ubiquitous intracellular enzymatic activity which converts the non-fluorescent cell-permeable molecule calcein AM to the intensely fluorescent molecule calcein, which is retained within live cells. The IC50 value for each library member represents at least six replicates of dose-response experiments conducted over five concentrations using two-fold dilutions. […] Standard errors are depicted with error bars. Numerical values and corresponding error values can be found in Table 4. Du145: […]; MCF7: human breast carcinoma; HCT-116: human colon carcinoma, Hep3B: human liver carcinoma; SF-268: human CNS glioblastoma; SK-OV-3: human ovary adenocarcinoma; NCI-H460: human lung carcinoma; A549: human lung adenocarcinoma; NCI/ADR-RES: human breast carcinoma; NmuMG: mouse mammary normal epithelial.
(§3) Cell Culture: All cell lines except NmuMG were maintained in RPMI 1640 medium from InVitrogen (Cat No. 11875-085) supplemented with 10% w/v fetal bovine serum (FBS) from ICN (Cat No. 2916154) and penicillin-streptomycin (PS) (100 U/mL and 100 μg/mL) from InVitrogen (Cat No. 15140-122). NmuMG cells were maintained in DMEM medium from InVitrogen (Cat No. 11965-084) supplemented with 10% w/v fetal bovine serum (FBS) from ICN (Cat No. 2916154), 10 μg/ml insulin (InVitrogen Cat No 12585-014), and penicillin-streptomycin (PS) (100 U/mL and 100 μg/mL) from InVitrogen (Cat No. 15140-122). Cells were harvested by trypsinization using 0.25% w/v trypsin and 0.1% w/v EDTA from InVitrogen (Cat No. 15-050-057) and then counted in a hemocytometer in duplicate with better than 10% agreement in field counts. Cells were plated at a cell density of 10,000-15,000 cells/well of each Corning Costar 96-well black tissue culture treated microtiter plate (Fisher Cat No. 07-200-627). Cells were grown for 1 h at 37° C., with 5% CO2 in a humidified incubator to allow cell attachment to occur before compound addition.
(§4) Library Member Handling and Preparation for Cytotoxicity Assays: Library members were stored at −20° C. under dessicating conditions before the assay. Library member stocks (100×) were prepared in Corning Costar polypropylene 96-well V-bottom polypropylene microtiter plates (Fisher Cat No. 07-200-695). Five serial 1:2 dilutions were made with anhydrous DMSO at 100× the final concentration used in the assay.
(§5) Library Member Addition: The library member-containing plates were diluted 1:10 with complete cell culture media. The 10× stocks (10 μL) were added to the attached cells using a Biomek FX liquid handler (Beckman-Coulter). Library member stocks (10 μL) were added to 90 μL of cells in each plate to insure full mixing of stocks with culture media using a Beckman FX liquid handler with 96-well head.
(§6) Determination of Cytotoxicity: Cells were incubated with the library members for 72 h before fluorescence reading. Test plates were removed from the incubator and washed 1× in sterile PBS to remove serum containing calcium esterases. Calcein AM reagent (30 μL, […]) was added and the cells were incubated for 30 min at 37° C. Plates were read for emission using a fluorescein filter (excitation 485 nm, emission 535 nm).
(§7) IC50 Calculation: For each library member, at least six dose response experiments were conducted. […] To calculate IC50, percent inhibitions were plotted as a function of log [concentration] and then fit to a four-parameter logistic model that allowed for a variable Hill slope using XLfit 4.1.
(§8) Cytotoxicity Assays. All cell lines except NmuMG were maintained in RPMI 1640 medium supplemented with 10% w/v fetal bovine serum (FBS) and penicillin-streptomycin (PS) (100 U/mL and 100 μg/mL).

The test system of another assay is SF-268. As to the kind of experiment: cells. The settings on record: SF-268 cells. The assay is classed as cell-based, human.
From the text: as §2, §3, §4, §5, §6, §7, §8

A further assay deals with SK-OV-3. As to the kind of experiment: cells. The assay is classed as cell-based, human. The settings on record: SK-OV-3 cells.
From the text: as §2, §3, §4, §5, §6, §7, §8

A further assay concerns NmuMG. As to the kind of experiment: cells. In kind it is cell-based, mouse.
From the text: as §2, §3, §4, §5, §6, §7, §8

[1] abbreviates: NmuMG mouse mammary normal epithelial control line, read-out: IC50, NmuMG.

Where two headings read alike, the source gives them in different places.

With `CON([C@H]1CC[C@@]2(C)[C@H](CC[C@@H]3[C@@H]2CC[C@]2(C)[C@@H](C4=CC(=O)OC4)CC[C@]32O)C1)[C@@H]1O[C@H](CO)[C@H](O)[C@@H](O)[C@H]1O` [25β, D-guloside], the IC50 in the assay on Du145 (read-out: IC50, Du145) is 5.7 µM; in the assay with MCF7 (read-out: IC50, MCF7), 0.9 µM; in the assay on HCT-116 (read-out: IC50, HCT-116) it was 2.1 µM; in the assay on Hep3B (read-out: IC50, Hep 3B), 1.9 µM; in the assay with NCI-H460 (read-out: IC50, NCI-H460), 2.6 µM; in the assay with A549 (read-out: IC50, A549), 2 µM. Besides, the IC50 in the assay with NCI/ADR-RES (read-out: IC50, NCI/ADR-RES) stood at 1.1 µM; in the assay with SF-268 (read-out: IC50, SF-268), 2 µM; in the assay with SK-OV-3 (read-out: IC50, SK-OV-3), 2.2 µM; in the assay on NmuMG (setting [1]), 1.8 µM.

Regarding `CON(C1CCC2(C)C(CCC3C2CCC2(C)C(C4=CC(=O)OC4)CCC32O)C1)C1OC(CO)C(O)C(O)C1O` [19α, L-altroside], the IC50 with Du145 (read-out: IC50, Du145) was > 25 µM; in the assay with MCF7 (read-out: IC50, MCF7) it was > 25 µM; in the assay on HCT-116 (read-out: IC50, HCT-116), > 25 µM; in the assay on Hep3B (read-out: IC50, Hep 3B) it was > 25 µM; in the assay with NCI-H460 (read-out: IC50, NCI-H460) it was > 25 µM; with A549 (read-out: IC50, A549) it was > 25 µM. The IC50 is > 25 µM in the assay with NCI/ADR-RES (read-out: IC50, NCI/ADR-RES); > 25 µM in the assay on SF-268 (read-out: IC50, SF-268); > 25 µM with SK-OV-3 (read-out: IC50, SK-OV-3); > 25 µM in the assay with NmuMG (setting [1]).

In the case of `CON(C1CCC2(C)C(CCC3C2CCC2(C)C(C4=CC(=O)OC4)CCC32O)C1)C1OC(C(=O)O)C(O)C(O)C1O` [38α, D-galacturonoside], the IC50 with Du145 (read-out: IC50), in the assay on MCF7 (read-out: IC50), with HCT-116 (read-out: IC50), in the assay with Hep3B (read-out: IC50), with NCI-H460 (read-out: IC50) and in the assay on A549 (read-out: IC50) was > 25 µM throughout. Also, the IC50 with NCI/ADR-RES (read-out: IC50) is > 25 µM; in the assay with SF-268 (read-out: IC50), > 25 µM; in the assay on SK-OV-3 (read-out: IC50), > 25 µM; in the assay with NmuMG (NmuMG cells (mouse mammary normal epithelial control line), read-out: IC50), > 25 µM.

In the case of `CON([C@H]1CC[C@@]2(C)[C@H](CC[C@@H]3[C@@H]2CC[C@]2(C)[C@@H](C4=CC(=O)OC4)CC[C@]32O)C1)[C@H]1O[C@@H](CO)[C@H](O)[C@H](O)[C@H]1O` [19β, L-altroside], the IC50 is 2.1 µM with Du145 (read-out: IC50, Du145); 1.3 µM in the assay on MCF7 (read-out: IC50, MCF7); 1.1 µM in the assay on HCT-116 (read-out: IC50, HCT-116); 2 µM in the assay with Hep3B (read-out: IC50, Hep 3B); 1.6 µM in the assay on NCI-H460 (read-out: IC50, NCI-H460); 0.76 µM in the assay on A549 (read-out: IC50, A549). The IC50 was 0.41 µM with NCI/ADR-RES (read-out: IC50, NCI/ADR-RES); 1.2 µM with SF-268 (read-out: IC50, SF-268); 1 µM in the assay on SK-OV-3 (read-out: IC50, SK-OV-3); 1 µM with NmuMG (setting [1]).

Regarding `CON([C@H]1CC[C@@]2(C)[C@H](CC[C@@H]3[C@@H]2CC[C@]2(C)[C@@H](C4=CC(=O)OC4)CC[C@]32O)C1)[C@@H]1O[C@H](CO)[C@@H](O)C[C@H]1O` [10β, 3-deoxy-D-glucoside], the IC50 with Du145 (read-out: IC50, Du145) is 0.8 µM; in the assay on MCF7 (read-out: IC50, MCF7) it was 0.46 µM; in the assay with HCT-116 (read-out: IC50, HCT-116), 1.8 µM; in the assay on Hep3B (read-out: IC50, Hep 3B), 1.7 µM; in the assay with NCI-H460 (read-out: IC50, NCI-H460), 1.6 µM; in the assay on A549 (read-out: IC50, A549), 1.6 µM. The IC50 in the assay on NCI/ADR-RES (read-out: IC50, NCI/ADR-RES) stood at 0.44 µM; with SF-268 (read-out: IC50, SF-268) it was 0.77 µM; in the assay on SK-OV-3 (read-out: IC50, SK-OV-3), 2.5 µM; with NmuMG (setting [1]) it was 0.94 µM.
